# Molecular target: T1, human Nav1.8 (Homo sapiens, UniProt Q9Y5Y9)
# T1 construct: expressed in transfected cells
# Assay: Qube® automated patch-clamp assay, Nav1.8
# Format: cell-based
# Details: human Nav1.8 stably expressed in HEK 293 cells; whole-cell voltage clamp, room temperature; read-out: IC50 values (nM) for Examples in the Nav1.8 Qube® Assay
# Experimental: Compounds were tested on human Nav1.8 and Nav1.5 channels stably expressed in human embryo kidney (HEK) 293 cells. Sodium current measurements on Qube® were conducted as follows: automated 384-well patch-clamp assays on the Qube® platform (Sophion Biosciences) were used to measure the inhibition of sodium flow through human Nav1.8 and Nav1.5 channels. Whole-cell voltage-clamp recordings were performed in QChips® (Sophion Biosciences) at room temperature. Nav1.8 current measurements on Qube® were obtained as follows: Nav1.8 currents were elicited with a 10 second 1 Hertz (Hz) pulse train from a holding potential of −90 millivolts (mV), delivered to the cells once per minute in the control condition (DMSO only) and after compound addition. The 1 hertz pulse train stimulation consisted of ten test pulses to 10 millivolt (mV) for 20 milliseconds (ms), each of which was followed by a 980 millisecond repolarization to −67 millivolts. At the end of the 10 second pulse train stimulation, a 5 second hyperpolarization step to −100 millivolt (mV) was used to recover Nav1.8 from fast inactivation. The peak currents elicited by the 1st and 10th test pulses were used to determine IC50 values for resting inhibition and inactivated state inhibition. Nav1.5 current measurements on Qube® were obtained as follows: Nav1.5 currents were elicited with a 20 second 3 Hertz pulse train in the control condition (DMSO only) and after compound addition. The pulse train consisted of sixty 20 millisecond test pulses to 0 millivolt from a holding potential of −80 millivolt (mV). The average peak currents elicited by the last 3 test pulses were used to determine IC50 values for Nav1.5 inhibition.
# The following buffers were used for the Qube® recordings: External buffer for Nav1.8 Qube® recording: 150 NaCl, 2 CaCl2, 5 KCl, 1 Mg Cl2, 10 HEPES, 12 Dextrose; External buffer for Qube® Nav1.5 recording: 120 N-Methyl-D-Glucamine, 40 NaCl, 1 KCl, 2.7 CaCl2, 5 HEPES, 0.5 MgCl2; and Internal buffer for Qube® recording: 120 CsF, 30 CsCl, 10 EGTA, 5 HEPES, 5 NaF, 2 MgCl2.
# For all Qube® experiments offline analysis was used to determine percent inhibition as a function of drug concentration. IC50 values were determined by fitting to the Hill equation.
# T1 sequence (Q9Y5Y9 whole entry): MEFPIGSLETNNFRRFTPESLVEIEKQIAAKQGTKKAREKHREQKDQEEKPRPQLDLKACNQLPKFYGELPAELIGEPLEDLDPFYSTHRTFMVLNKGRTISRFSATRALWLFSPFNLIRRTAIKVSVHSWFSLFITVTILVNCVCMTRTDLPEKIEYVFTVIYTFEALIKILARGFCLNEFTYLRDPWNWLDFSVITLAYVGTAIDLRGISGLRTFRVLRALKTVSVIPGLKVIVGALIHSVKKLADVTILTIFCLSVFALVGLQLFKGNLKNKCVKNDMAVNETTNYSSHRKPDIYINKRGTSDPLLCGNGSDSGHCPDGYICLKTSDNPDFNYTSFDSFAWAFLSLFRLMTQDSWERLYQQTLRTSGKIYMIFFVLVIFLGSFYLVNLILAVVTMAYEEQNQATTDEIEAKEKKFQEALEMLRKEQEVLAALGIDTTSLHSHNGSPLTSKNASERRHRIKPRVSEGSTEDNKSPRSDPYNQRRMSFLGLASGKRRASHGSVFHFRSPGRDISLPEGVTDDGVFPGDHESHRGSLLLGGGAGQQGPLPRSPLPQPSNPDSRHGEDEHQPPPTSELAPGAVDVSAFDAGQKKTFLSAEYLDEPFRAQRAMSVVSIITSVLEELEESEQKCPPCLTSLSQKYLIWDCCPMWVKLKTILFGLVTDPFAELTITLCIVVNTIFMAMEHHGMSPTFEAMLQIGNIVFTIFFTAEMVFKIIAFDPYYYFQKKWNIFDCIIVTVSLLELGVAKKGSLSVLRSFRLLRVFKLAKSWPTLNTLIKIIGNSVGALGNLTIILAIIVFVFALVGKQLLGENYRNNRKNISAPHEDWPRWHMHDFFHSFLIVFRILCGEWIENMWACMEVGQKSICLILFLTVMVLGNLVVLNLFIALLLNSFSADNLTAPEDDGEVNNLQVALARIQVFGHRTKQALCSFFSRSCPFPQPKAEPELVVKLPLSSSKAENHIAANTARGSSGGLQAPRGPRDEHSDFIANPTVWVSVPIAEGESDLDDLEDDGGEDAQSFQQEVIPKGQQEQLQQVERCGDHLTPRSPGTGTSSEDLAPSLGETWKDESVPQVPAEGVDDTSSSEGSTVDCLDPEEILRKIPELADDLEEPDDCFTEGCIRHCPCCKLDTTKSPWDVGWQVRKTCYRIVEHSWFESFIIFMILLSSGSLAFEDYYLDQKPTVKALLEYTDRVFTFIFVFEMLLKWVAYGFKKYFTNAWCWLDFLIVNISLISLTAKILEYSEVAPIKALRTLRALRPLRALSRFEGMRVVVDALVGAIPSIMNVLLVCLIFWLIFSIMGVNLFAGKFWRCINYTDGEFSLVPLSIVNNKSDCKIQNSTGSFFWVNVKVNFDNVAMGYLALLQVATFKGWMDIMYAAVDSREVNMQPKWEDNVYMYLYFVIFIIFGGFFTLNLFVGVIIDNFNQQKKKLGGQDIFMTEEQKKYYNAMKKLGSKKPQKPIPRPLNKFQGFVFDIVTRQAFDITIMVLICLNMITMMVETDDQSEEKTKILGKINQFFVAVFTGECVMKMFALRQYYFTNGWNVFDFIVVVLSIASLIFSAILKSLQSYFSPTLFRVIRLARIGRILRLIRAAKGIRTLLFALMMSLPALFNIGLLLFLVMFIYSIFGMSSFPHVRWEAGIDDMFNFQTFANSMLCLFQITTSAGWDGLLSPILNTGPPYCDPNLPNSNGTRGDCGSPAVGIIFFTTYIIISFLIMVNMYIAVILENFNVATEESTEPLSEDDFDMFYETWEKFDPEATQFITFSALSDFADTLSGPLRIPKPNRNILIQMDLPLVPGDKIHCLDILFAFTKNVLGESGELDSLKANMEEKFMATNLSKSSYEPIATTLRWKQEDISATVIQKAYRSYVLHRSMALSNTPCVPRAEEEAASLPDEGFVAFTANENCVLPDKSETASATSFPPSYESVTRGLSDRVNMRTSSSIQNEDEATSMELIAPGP
row,SMILES,IC50
1,"O=C1C[C@H](C(=O)NC(c2ccc(Cl)cc2)c2ccc(F)c(Cl)c2)CN1 (mixture of isomers) [Example 1B, (S—N—((R and S)-(3-chloro-4-fluorophenyl)(4-chlorophenyl)methyl)-5-oxopyrrolidine-3-carboxamide]",13 nM
2,"O=C1C[C@H](C(=O)NC(c2ccc(Cl)cc2)c2ccc(F)c(Cl)c2)CN1 (single isomer, unassigned) [Example 1A, (S—N—((R or S)-(3-chloro-4-fluorophenyl)(4-chlorophenyl)methyl)-5-oxopyrrolidine-3-carboxamide]",3.4 nM
3,"O=C1C[C@H](C(=O)NC(c2ccc(Cl)cc2)c2ccc(F)c(C(F)(F)F)c2)CN1 (single isomer, unassigned) [Example 11A, (S)-N-((R or S)-(4-chlorophenyl)(4-fluoro-3-(trifluoromethyl)phenyl)methyl)-5-oxopyrrolidine-3-carboxamide]",2.6 nM
4,"O=C1C[C@H](C(=O)NC(c2ccc(Cl)cc2)c2ccc(F)c(C(F)(F)F)c2)CN1 (single isomer, unassigned) [Example 11B, (S)-N-((R or S)-(4-chlorophenyl)(4-fluoro-3-(trifluoromethyl)phenyl)methyl)-5-oxopyrrolidine-3-carboxamide]",17 nM
5,"O=C1C[C@H](C(=O)NC(c2ccc(Cl)cc2)c2ccc(OC(F)(F)F)cc2)CN1 (single isomer, unassigned) [Example 12A, (S)-N-((R or S)-(4-chlorophenyl)(4-(trifluoromethoxy)phenyl)methyl)-5-oxopyrrolidine-3-carboxamide]",28 nM
6,"O=C1C[C@H](C(=O)NC(c2ccc(Cl)cc2)c2ccc(OC(F)(F)F)cc2)CN1 (single isomer, unassigned) [Example 12B, (S)-N-((R or S)-(4-chlorophenyl)(4-(trifluoromethoxy)phenyl)methyl)-5-oxopyrrolidine-3-carboxamide]",4.1 nM
7,"N#Cc1ccc(C(NC(=O)[C@@H]2CNC(=O)C2)c2ccc(F)c(Cl)c2)cc1 (single isomer, unassigned) [Example 13A, (S)-N-((R or S)-(3-chloro-4-fluorophenyl)(4-cyanophenyl)methyl)-5-oxopyrrolidine-3-carboxamide]",139 nM
8,"N#Cc1ccc(C(NC(=O)[C@@H]2CNC(=O)C2)c2ccc(F)c(Cl)c2)cc1 (single isomer, unassigned) [Example 13B, (S)-N-((R or S)-(3-chloro-4-fluorophenyl)(4-cyanophenyl)methyl)-5-oxopyrrolidine-3-carboxamide]",129 nM
9,"O=C1C[C@H](C(=O)NC(c2ccc(Cl)cc2)c2ccc(Cl)c(C(F)(F)F)c2)CN1 (single isomer, unassigned) [Example 14A, (S—N—((R or S)-(4-chloro-3-(trifluoromethyl)phenyl)(4-chlorophenyl)methyl)-5-oxopyrrolidine-3-carboxamide]",1.2 nM
10,"O=C1C[C@H](C(=O)NC(c2ccc(Cl)cc2)c2ccc(Cl)c(C(F)(F)F)c2)CN1 (single isomer, unassigned) [Example 14B, (S—N—((R or S)-(4-chloro-3-(trifluoro-methyl)phenyl)(4-chlorophenyl)methyl)-5-oxopyrrolidine-3-carboxamide]",9.4 nM
11,"O=C1C[C@H](C(=O)NC(c2cnc(C(F)(F)F)c(Cl)c2)c2ccc(F)c(Cl)c2F)CN1 (single isomer, unassigned) [Example 15, (S—N—((R or S)-(3-chloro-2,4-difluorophenyl)(5-chloro-6-(trifluoromethyl)pyridin-3-yl)methyl)-5-oxopyrrolidine-3-carboxamide]",4.2 nM
12,"O=C1C[C@H](C(=O)NC(c2ccc(F)c(Cl)c2F)[C@H]2C[C@H](C(F)(F)F)C2)CN1 (single isomer, unassigned) [Example 16, (S—N—((R or S)-(3-chloro-2,4-difluorophenyl)((trans)-3-(trifluoromethyl)cyclobutyl)methyl)-5-oxopyrrolidine-3-carboxamide]",46 nM
13,"O=C1C[C@H](C(=O)NC(c2ccc(C(F)(F)F)cc2)c2ccc(F)c(Cl)c2)CN1 (single isomer, unassigned) [Example 17, (S—N—((R or S)-(3-chloro-4-fluorophenyl)(4-(trifluoromethyl)phenyl)methyl)-5-oxopyrrolidine-3-carboxamide]",11 nM
14,"O=C1C[C@H](C(=O)NC(c2ccc(OC(F)(F)F)cc2)c2cccc(Cl)c2)CN1 (single isomer, unassigned) [Example 19A, (S)-N-((R or S)-(3-chlorophenyl)(4-(trifluoromethoxy)phenyl)methyl)-5-oxopyrrolidine-3-carboxamide]",16 nM
15,"O=C1C[C@H](C(=O)NC(c2ccc(OC(F)(F)F)cc2)c2cccc(Cl)c2)CN1 (single isomer, unassigned) [Example 19B, (S)-N-((R or S)-(3-chlorophenyl)(4-(trifluoromethoxy)phenyl)methyl)-5-oxopyrrolidine-3-carboxamide]",17 nM
16,"O=C1C[C@H](C(=O)NC(c2ccc(F)c(Cl)c2)c2ccc(Cl)c(C(F)(F)F)n2)CN1 (single isomer, unassigned) [Example 20A, (S)-N-((R or S)-(3-chloro-4-fluorophenyl)(5-chloro-6-(trifluoromethyl)-pyridin-2-yl)methyl)-5-oxopyrrolidine-3-carboxamide]",51 nM
17,"O=C1C[C@H](C(=O)NC(c2ccc(F)c(Cl)c2)c2ccc(Cl)c(C(F)(F)F)n2)CN1 (single isomer, unassigned) [Example 20B, (S)-N-((R or S)-(3-chloro-4-fluorophenyl)(5-chloro-6-(trifluoromethyl)-pyridin-2-yl)methyl)-5-oxopyrrolidine-3-carboxamide]",2.9 nM
18,"CC1(C)CC(C(NC(=O)[C@@H]2CNC(=O)C2)c2ccc(F)c(Cl)c2F)C1 (single isomer, unassigned) [Example 21A, (S—N—((R or S)-(3-chloro-2,4-difluorophenyl)(3,3-dimethylcyclobutyl)methyl)-5-oxopyrrolidine-3-carboxamide]",2220 nM
19,"CC1(C)CC(C(NC(=O)[C@@H]2CNC(=O)C2)c2ccc(F)c(Cl)c2F)C1 (single isomer, unassigned) [Example 21B, (S—N—((R or S)-(3-chloro-2,4-difluorophenyl)(3,3-dimethylcyclobutyl)methyl)-5-oxopyrrolidine-3-carboxamide]",17 nM
20,"CC1C(=O)NCC1C(=O)NC(c1ccc(Cl)cc1)c1ccc(Cl)cc1 (single isomer, unassigned) [Example 27A, (3(R or S),4(R or S)—N-(bis(4-chlorophenyl)methyl)-4-methyl-5-oxopyrrolidine-3-carboxamide]",7460 nM
21,"CC1C(=O)NCC1C(=O)NC(c1ccc(Cl)cc1)c1ccc(Cl)cc1 (single isomer, unassigned) [Example 27B, (3(R or S),4(R or S)—N-(bis(4-chlorophenyl)methyl)-4-methyl-5-oxopyrrolidine-3-carboxamide]",277 nM
22,"CC1C(=O)NCC1C(=O)NC(c1ccc(Cl)cc1)c1ccc(Cl)cc1 (single isomer, unassigned) [Example 27C, (3(R or S),4(R or S)—N-(bis(4-chlorophenyl)methyl)-4-methyl-5-oxopyrrolidine-3-carboxamide]",3480 nM
23,"CC1C(=O)NCC1C(=O)NC(c1ccc(Cl)cc1)c1ccc(Cl)cc1 (single isomer, unassigned) [Example 27D, (3(R or S),4(R or S)—N-(bis(4-chlorophenyl)methyl)-4-methyl-5-oxopyrrolidine-3-carboxamide]",7650 nM
24,"N#Cc1cccc(C(NC(=O)[C@@H]2CNC(=O)C2)c2cccc(Cl)c2)c1 (stereo partly drawn) [Example 2, (3S)-N-((3-chlorophenyl)(3-cyanophenyl)methyl)-5-oxopyrrolidine-3-carboxamide]",820 nM
25,"O=C1C[C@H](C(=O)NC(c2ccc(Cl)cc2)c2ccc(C3CC3)cc2)CN1 (stereo partly drawn) [Example 3, (3S)-N-((4-chlorophenyl)(4-cyclopropylphenyl)methyl)-5-oxopyrrolidine-3-carboxamide]",186 nM
26,"CC(C)c1ccc(C(NC(=O)[C@@H]2CNC(=O)C2)c2ccc(Cl)cc2)cc1 (stereo partly drawn) [Example 4, (3S)-N-((4-chlorophenyl)(4-isopropylphenyl)methyl)-5-oxopyrrolidine-3-carboxamide]",108 nM
27,"COc1cc(Cl)ccc1C(NC(=O)[C@@H]1CNC(=O)C1)c1ccc(Cl)cc1 (stereo partly drawn) [Example 5, (3S)-N-((4-chloro-2-methoxyphenyl)(4-chlorophenyl)methyl)-5-oxopyrrolidine-3-carboxamide]",11 nM
